Reference: article PMC8398451, “Molecular Engineering of Curcumin, an Active Constituent of Curcuma longa L. (Turmeric) of the Family Zingiberaceae with Improved Antiproliferative Activity” (Plants, 2021)

What was measured:
HCT-15 = assay: NCI antiproliferative SRB assay, Colon Cancer panel; type: cell-based, Human; details: one dose 10 µM
PC-3 = assay: NCI antiproliferative SRB assay, Prostate Cancer panel; type: cell-based, Human; details: one dose 10 µM
CAKI-1 = assay: NCI antiproliferative SRB assay, Renal Cancer panel; type: cell-based, Human; details: one dose 10 µM
[1] = system: Ovarian Cancer cell line panel; assay: NCI antiproliferative assay, panel summary; type: cell-based, Human; details: 10 µM
HOP-62 = assay: NCI antiproliferative SRB assay, Non-Small Cell Lung Cancer panel; type: cell-based, Human; details: one dose 10 µM
SF-268 = assay: NCI antiproliferative SRB assay, CNS Cancer panel; type: cell-based, Human; details: one dose 10 µM
[2] = system: CNS Cancer cell line panel; assay: NCI antiproliferative assay, panel summary; type: cell-based, Human; details: 10 µM
MDA-MB-231 = assay: NCI antiproliferative SRB assay, Breast Cancer panel; type: cell-based; details: one dose 10 µM
HT29 = assay: NCI antiproliferative SRB assay, Colon Cancer panel; type: cell-based, Human; details: one dose 10 µM
SF-539 = assay: NCI antiproliferative SRB assay, CNS Cancer panel; type: cell-based, Human; details: one dose 10 µM
RXF 393 = assay: NCI antiproliferative SRB assay, Renal Cancer panel; type: cell-based, Human; details: one dose 10 µM
OVCAR-5 = assay: NCI antiproliferative SRB assay, Ovarian Cancer panel; type: cell-based, Human; details: one dose 10 µM
NCI-H226 = assay: NCI antiproliferative SRB assay, Non-Small Cell Lung Cancer panel; type: cell-based, Human; details: one dose 10 µM
T-47D = assay: NCI antiproliferative SRB assay, Breast Cancer panel; type: cell-based, Human; details: one dose 10 µM
MOLT-4 = assay: NCI antiproliferative SRB assay, Leukemia panel; type: cell-based, Human; details: one dose 10 µM
ACHN = assay: NCI antiproliferative SRB assay, Renal Cancer panel; type: cell-based, Human; details: one dose 10 µM
SN 12C = assay: as above; type: cell-based, Human; details: one dose 10 µM
HS 578T = assay: NCI antiproliferative SRB assay, Breast Cancer panel; type: cell-based, Human; details: one dose 10 µM
Leukemia cell line panel = assay: NCI antiproliferative assay, panel summary; type: cell-based, Human; details: 10 µM
MCF7 = assay: NCI antiproliferative SRB assay, Breast Cancer panel; type: cell-based, Human; details: one dose 10 µM
UO-31 = assay: NCI antiproliferative SRB assay, Renal Cancer panel; type: cell-based, Human; details: one dose 10 µM
MDA-MB-435 = assay: NCI antiproliferative SRB assay, Melanoma panel; type: cell-based; details: one dose 10 µM
SK-MEL-2 = assay: NCI antiproliferative SRB assay, Melanoma panel; type: cell-based, Human; details: one dose 10 µM
UACC-62 = assay: NCI antiproliferative SRB assay, Melanoma panel; type: cell-based, Human; details: one dose 10 µM
DU-145 = assay: NCI antiproliferative SRB assay, Prostate Cancer panel; type: cell-based, Human; details: one dose 10 µM
BT-549 = assay: NCI antiproliferative SRB assay, Breast Cancer panel; type: cell-based, Human; details: one dose 10 µM
U251 = assay: NCI antiproliferative SRB assay, CNS Cancer panel; type: cell-based; details: U251; one dose 10 µM
CCRF-CEM = assay: NCI antiproliferative SRB assay, Leukemia panel; type: cell-based, Human; details: one dose 10 µM
RPMI-8226 = assay: NCI antiproliferative SRB assay, Leukemia panel; type: cell-based, Human; details: one dose 10 µM
M14 = assay: NCI antiproliferative SRB assay, Melanoma panel; type: cell-based, Human; details: one dose 10 µM
[3] = system: Breast Cancer cell line panel; assay: NCI antiproliferative assay, panel summary; type: cell-based, Human; details: 10 µM

COc1ccc(/C=C/c2cc(/C=C/c3ccc(OC)c(O)c3)n(-c3cccc(Cl)c3)c(=S)n2)cc1O [3a]
%GI (HCT-15): 6.07% | GP (growth percent) (HCT-15): 93.93 | %GI (PC-3): 10.79% | GP (growth percent) (PC-3): 89.21 | %GI (CAKI-1): 20.96% | GP (growth percent) (CAKI-1): 79.04 | Mean % GI [1]: 7.04% | %GI (HOP-62): 4.94% | GP (growth percent) (HOP-62): 95.06 | %GI (SF-268): 16.24% | GP (growth percent) (SF-268): 83.76 | Mean % GI [2]: 14.74% | %GI (MDA-MB-231): 31.75% | GP (growth percent) (MDA-MB-231): 68.25 | %GI (HT29): 53.43% | GP (growth percent) (HT29): 46.57 | %GI (SF-539): 6.89% | GP (growth percent) (SF-539): 93.11 | %GI (RXF 393): 7.37% | GP (growth percent) (RXF 393): 92.63 | %GI (OVCAR-5): −12.92% | GP (growth percent) (OVCAR-5): 112.92 | %GI (NCI-H226): 1.46% | GP (growth percent) (NCI-H226): 98.54 | %GI (T-47D): 36.18% | GP (growth percent) (T-47D): 63.82 | %GI (MOLT-4): 53.78% | GP (growth percent) (MOLT-4): 46.22 | %GI (ACHN): 4.99% | GP (growth percent) (ACHN): 95.01 | %GI (SN 12C): 7.39% | GP (growth percent) (SN 12C): 92.61 | %GI (HS 578T): 15.67% | GP (growth percent) (HS 578T): 84.33 | Mean % GI (Leukemia cell line panel): 41.39% | %GI (MCF7): 32.09% | GP (growth percent) (MCF7): 67.91 | %GI (UO-31): 28.74% | GP (growth percent) (UO-31): 71.26 | %GI (MDA-MB-435): 18.68% | GP (growth percent) (MDA-MB-435): 81.32 | %GI (SK-MEL-2): 4.85% | GP (growth percent) (SK-MEL-2): 95.15 | %GI (UACC-62): 17.81% | GP (growth percent) (UACC-62): 82.19 | %GI (DU-145): 19.16% | GP (growth percent) (DU-145): 80.84 | %GI (BT-549): 27.48% | GP (growth percent) (BT-549): 72.52 | %GI (U251): 40.59% | GP (growth percent) (U251): 59.41 | %GI (CCRF-CEM): 46.57% | GP (growth percent) (CCRF-CEM): 53.43 | %GI (RPMI-8226): 39.41% | GP (growth percent) (RPMI-8226): 60.59 | %GI (M14): 5.96% | GP (growth percent) (M14): 94.04 | Mean % GI [3]: 26.56%
